Experimental data published in the NIST ThermoML archive (doi:10.1021/je049721u).
Where “and” joins values, the source holds several entries; their conditions need not be identical. Identical values can stand only once. Numbers after ± are expanded uncertainties.

Experiments:
[1] = mn = molality of the nth substance listed, in mol/kg; conditions: 101.3 kPa, Liquid, m2 = 0
[2] = 101.3 kPa, Liquid

SMILES: CN(C)C=O [dimethylformamide] + [Co+2].[O-][Cl+3]([O-])([O-])[O-].[O-][Cl+3]([O-])([O-])[O-]
- mass density ([1]; 283.15 K): 958.163 ± 0.58 kg/m3
- mass density ([1]; 293.15 K): 948.653 ± 0.59 kg/m3
- mass density ([1]; 298.15 K): 943.884 ± 0.59 kg/m3
- mass density ([1]; 303.15 K): 939.114 ± 0.59 kg/m3
- mass density ([1]; 313.15 K): 929.529 ± 0.6 kg/m3
- mass density ([1]; 323.15 K): 919.9 ± 0.61 kg/m3
- mass density ([1]; 333.15 K): 910.2 ± 0.61 kg/m3

SMILES: CN(C)C=O [dimethylformamide] + [O-][Cl+3]([O-])([O-])[O-].[O-][Cl+3]([O-])([O-])[O-].[Zn+2]
- mass density ([1]; 283.15 K): 958.163 ± 0.58 kg/m3
- mass density ([1]; 293.15 K): 948.653 ± 0.59 kg/m3
- mass density ([1]; 298.15 K): 943.884 ± 0.59 kg/m3
- mass density ([1]; 303.15 K): 939.114 ± 0.59 kg/m3
- mass density ([1]; 313.15 K): 929.529 ± 0.6 kg/m3
- mass density ([1]; 323.15 K): 919.9 ± 0.61 kg/m3
- mass density ([1]; 333.15 K): 910.2 ± 0.61 kg/m3

SMILES: CN(C)C=O [dimethylformamide] + [Mn+2].[O-][Cl+3]([O-])([O-])[O-].[O-][Cl+3]([O-])([O-])[O-]
- mass density ([1]; 283.15 K): 958.077 ± 0.58 kg/m3
- mass density ([1]; 293.15 K): 948.565 ± 0.58 kg/m3
- mass density ([1]; 298.15 K): 943.797 ± 0.59 kg/m3
- mass density ([1]; 303.15 K): 939.017 ± 0.59 kg/m3
- mass density ([1]; 313.15 K): 929.437 ± 0.6 kg/m3
- mass density ([1]; 323.15 K): 919.807 ± 0.6 kg/m3
- mass density ([1]; 333.15 K): 910.12 ± 0.61 kg/m3

SMILES: CN(C)C=O [dimethylformamide] + [Ni+2].[O-][Cl+3]([O-])([O-])[O-].[O-][Cl+3]([O-])([O-])[O-]
- mass density ([1]; 283.15 K): 958.163 ± 0.58 kg/m3
- mass density ([1]; 293.15 K): 948.653 ± 0.59 kg/m3
- mass density ([1]; 298.15 K): 943.884 ± 0.59 kg/m3
- mass density ([1]; 303.15 K): 939.114 ± 0.59 kg/m3
- mass density ([1]; 313.15 K): 929.529 ± 0.6 kg/m3
- mass density ([1]; 323.15 K): 919.9 ± 0.61 kg/m3
- mass density ([1]; 333.15 K): 910.2 ± 0.61 kg/m3

SMILES: CN(C)C=O [dimethylformamide]
- mass density ([2]; 283.15 K): 958.077 ± 0.58 kg/m3 and 958.163 ± 0.58 kg/m3 and 958.075 ± 0.58 kg/m3
- mass density ([2]; 293.15 K): 948.565 ± 0.58 kg/m3 and 948.653 ± 0.59 kg/m3
- mass density ([2]; 298.15 K): 943.797 ± 0.59 kg/m3 and 943.884 ± 0.59 kg/m3
- mass density ([2]; 303.15 K): 939.017 ± 0.59 kg/m3 and 939.114 ± 0.59 kg/m3
- mass density ([2]; 313.15 K): 929.529 ± 0.6 kg/m3 and 929.437 ± 0.6 kg/m3
- mass density ([2]; 323.15 K): 919.807 ± 0.6 kg/m3 and 919.9 ± 0.61 kg/m3
- mass density ([2]; 333.15 K): 910.12 ± 0.61 kg/m3 and 910.2 ± 0.61 kg/m3

SMILES: CN(C)C=O [dimethylformamide] + [Cu+2].[O-][Cl+3]([O-])([O-])[O-].[O-][Cl+3]([O-])([O-])[O-]
- mass density ([1]; 283.15 K): 958.075 ± 0.58 kg/m3
- mass density ([1]; 293.15 K): 948.565 ± 0.59 kg/m3
- mass density ([1]; 298.15 K): 943.797 ± 0.59 kg/m3
- mass density ([1]; 303.15 K): 939.017 ± 0.59 kg/m3
- mass density ([1]; 313.15 K): 929.437 ± 0.6 kg/m3
- mass density ([1]; 323.15 K): 919.807 ± 0.61 kg/m3
- mass density ([1]; 333.15 K): 910.12 ± 0.61 kg/m3
